# Test results published in ChEMBL document CHEMBL5726001, “Compounds for use in preparing heterocyclic triazole agonists of the APJ receptor” (2018).
# Molecular target: T1, Apelin receptor (Homo sapiens, UniProt P35414)
# T1 sequence (P35414 whole entry): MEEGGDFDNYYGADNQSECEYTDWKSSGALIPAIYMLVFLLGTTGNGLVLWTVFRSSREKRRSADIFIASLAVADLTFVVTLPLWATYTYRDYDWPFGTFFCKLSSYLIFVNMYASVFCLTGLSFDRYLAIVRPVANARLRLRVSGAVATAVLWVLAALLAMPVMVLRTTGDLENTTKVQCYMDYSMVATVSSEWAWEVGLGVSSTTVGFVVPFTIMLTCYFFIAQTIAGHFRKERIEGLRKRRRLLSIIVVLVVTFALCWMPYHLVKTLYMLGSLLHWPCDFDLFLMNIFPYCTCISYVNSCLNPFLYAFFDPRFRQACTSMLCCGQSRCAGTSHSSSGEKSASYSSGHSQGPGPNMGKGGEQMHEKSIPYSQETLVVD
# Experiment: [35S]GTPgammaS Binding: The human APJ receptor was cloned by polymerase chain reaction and the gene encoding the receptor was subcloned in pFLAG-CMV-3 expression vector (Sigma, Saint Louis, Mo. USA) in-house at Amgen. A GTPγS binding assay was performed on membranes prepared from CHO cells stably expressing human APJ receptor. The optimum experimental conditions for the concentrations of GDP, MgCl2, and NaCl in the assay buffer were initially determined. The assay was performed in assay buffer [20 mM HEPES, pH 7.5, 5 mM MgCl2, and 0.1% (w/v) BSA with 200 mM NaCl, 3 μM GDP] and membranes expressing human APJ receptor/well along with WGA PS beads. The reaction was initiated by addition of 0.2 nM [35S]GTPγS (Perkin Elmer Life and Analytical Sciences, Waltham USA) in the absence or presence of various ligands and incubated at RT for 90 min. Nonspecific binding was determined in the presence of 100 μM GTPγS and was always less than 0.2% of total binding. All the results presented are means of several independent experiments and analyzed by non-linear regression methods using commercially available program Prism (GraphPad, San Diego, Calif.).
row,Compound,EC50
1,"CO[C@H]1CCC[C@@H](OC)[C@@H]1n1c(NS(=O)(=O)[C@@H](C)[C@H](C)c2ncc(C)cn2)nnc1C1CCCO1 (single isomer, unassigned)",240 nM
2,COc1cccc(OC)c1-n1c(NS(=O)(=O)[C@@H](C)[C@@H](OC(C)C)c2ncc(C)cn2)nnc1[C@H]1COCCO1,16 nM
3,COc1ncnc(OC)c1-n1c(NS(=O)(=O)[C@@H](C)[C@H](C)c2ncc(Cl)cn2)nnc1C1COC1,730 nM
